ChEMBL document CHEMBL3132766, “Flavans from Desmos cochinchinensis as potent aromatase inhibitors” (Medchemcomm, 2013)
pIC50: −log10 of the molar value.

Assays:
Aromatase [1] = molecular target: T1, Aromatase (Homo sapiens, UniProt P11511); test: Inhibition of aromatase (unknown origin)
T1 sequence (P11511 whole entry): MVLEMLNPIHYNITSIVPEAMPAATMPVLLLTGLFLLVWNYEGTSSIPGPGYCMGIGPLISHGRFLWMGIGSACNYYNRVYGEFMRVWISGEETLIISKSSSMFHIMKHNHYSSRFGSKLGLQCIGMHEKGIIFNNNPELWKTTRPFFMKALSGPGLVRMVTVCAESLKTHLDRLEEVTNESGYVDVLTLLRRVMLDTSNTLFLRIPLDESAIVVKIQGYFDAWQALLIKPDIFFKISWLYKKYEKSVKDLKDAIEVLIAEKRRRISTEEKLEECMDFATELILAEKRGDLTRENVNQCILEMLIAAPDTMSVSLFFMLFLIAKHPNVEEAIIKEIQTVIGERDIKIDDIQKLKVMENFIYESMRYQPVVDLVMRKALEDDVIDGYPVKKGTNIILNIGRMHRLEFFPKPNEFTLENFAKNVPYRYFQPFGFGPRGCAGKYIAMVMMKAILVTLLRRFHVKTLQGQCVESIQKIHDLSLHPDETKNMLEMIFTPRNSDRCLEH

[2] = Cytotoxicity against human HuCCa1 cells by MTT assay; type: functional, cell-based, HuCC-A1; details: for IC50: hucc-a1; for pIC50: Homo sapiens, HuCC-A1, read-out: IC50
A549 = test: Cytotoxicity against human A549 cells by MTT assay; type: functional, cell-based; details: for IC50: a549; for pIC50: Homo sapiens, A549, read-out: IC50
HepG2 = test: Cytotoxicity against human HepG2 cells by MTT assay; type: functional, cell-based; details: for IC50: hepg2; for pIC50: Homo sapiens, HepG2, read-out: IC50
[3] = Cytotoxicity against human MOLT3 cells by XTT assay; type: functional, cell-based; details: MOLT-3
Aromatase [4] = molecular target: T1, Aromatase; test: Inhibition of human recombinant aromatase expressed in baculovirus infected insect cells using O-benzylfluorescein benzyl ester as substrate after 30 mins

Row | pIC50 (Aromatase [1]) | pIC50 (Aromatase [4]) | Compound | IC50 [2] | IC50 (A549) | IC50 (HepG2) | pIC50 [3] | pIC50 (HepG2) | pIC50 [2] | pIC50 (A549)
1 | – | < 4.90 | COc1c(C)c(O)c2c(c1C)O[C@H](c1ccccc1)CC2=O | Not Active | Not Active | Not Active | 4.14 | – | – | –
2 | – | 6.22 | COc1cc(O)c2c(c1C)O[C@H](c1ccccc1)CC2=O | – | – | – | – | – | – | –
3 | – | 6.82 | COc1c(C)c(O)c(C=O)c2c1[C@H](OC)C[C@@H](c1ccccc1)O2 | – | – | – | 4.55 | 3.84 | 3.90 | 3.98
4 | – | 7.40 | COc1cc(O)c(C=O)c2c1[C@H](O)C[C@@H](c1ccccc1)O2 | – | – | Not Active | 4.61 | – | 3.89 | 3.83
5 | – | 7.05 | COc1cc(O)c(C=O)c2c1[C@H](OC)C[C@@H](c1ccccc1)O2 | – | Not Active | Not Active | 4.38 | – | 3.85 | –

The next lines start with the molecule.

Row | Compound | pIC50 (Aromatase [1]) | pIC50 (Aromatase [4]) | IC50 [2] | IC50 (A549) | IC50 (HepG2) | pIC50 [3] | pIC50 (HepG2) | pIC50 [2] | pIC50 (A549)
6 | COc1cc(O)c([C@H]2C[C@@H](c3ccccc3)Oc3c(C=O)c(O)cc(O)c32)c(O)c1C(=O)/C=C/c1ccccc1 | 5.74 | – | – | – | – | – | – | – | –
7 | O=C1C[C@@H](c2ccccc2)Oc2cc(O)cc(O)c21 [PINOCEMBRIN] | 6.05 | – | – | – | – | – | – | – | –
8 | COc1c(C)c(OC)c2c(c1C)O[C@H](c1ccccc1)C[C@H]2O | – | 4.97 | Not Active | Not Active | – | 4.20 | 3.87 | – | –
9 | COc1c(C)c(O)c(C=O)c2c1[C@H](O)C[C@@H](c1ccccc1)O2 | – | 7.10 | – | Not Active | – | 4.53 | 3.84 | 3.84 | –
10 | COc1cccc2c1C(=O)c1c(O)c3c(c(O)c1C2=O)C[C@@](O)(C(=O)CO)C[C@@H]3O[C@H]1C[C@H](N)[C@H](O)[C@H](C)O1 [DOXORUBICIN] | – | – | – | – | – | – | – | 5.96 | –
11 | COc1c(C)c(OC)c2c(c1C=O)O[C@H](c1ccccc1)C[C@H]2O | – | 6.00 | Not Active | – | – | 4.24 | 4.00 | – | 3.86
12 | COc1cc(O)c([C@@H]2C[C@@H](c3ccccc3)Oc3c(C=O)c(O)cc(O)c32)c(O)c1C(=O)/C=C/c1ccccc1 | 5.48 | – | – | – | – | – | – | – | –
13 | COc1cc([C@@H]2c3cc4c(cc3[C@@H](O[C@@H]3O[C@@H]5CO[C@@H](C)O[C@H]5[C@H](O)[C@H]3O)[C@H]3COC(=O)[C@H]23)OCO4)cc(OC)c1O [ETOPOSIDE] | – | – | – | – | – | 7.52 | 4.66 | – | –
